Legend:
Test in all cases: size exclusion chromatography
Format in all cases: binding
Vps4p = target: T1, Vps4p (Saccharomyces cerevisiae, UniProt P52917, E233Q); settings: 2 mM MgCl2, pH 7.4, 4 °C; 1 mM ATP; Walker B mutant
T1 sequence (P52917 1-437 E233Q): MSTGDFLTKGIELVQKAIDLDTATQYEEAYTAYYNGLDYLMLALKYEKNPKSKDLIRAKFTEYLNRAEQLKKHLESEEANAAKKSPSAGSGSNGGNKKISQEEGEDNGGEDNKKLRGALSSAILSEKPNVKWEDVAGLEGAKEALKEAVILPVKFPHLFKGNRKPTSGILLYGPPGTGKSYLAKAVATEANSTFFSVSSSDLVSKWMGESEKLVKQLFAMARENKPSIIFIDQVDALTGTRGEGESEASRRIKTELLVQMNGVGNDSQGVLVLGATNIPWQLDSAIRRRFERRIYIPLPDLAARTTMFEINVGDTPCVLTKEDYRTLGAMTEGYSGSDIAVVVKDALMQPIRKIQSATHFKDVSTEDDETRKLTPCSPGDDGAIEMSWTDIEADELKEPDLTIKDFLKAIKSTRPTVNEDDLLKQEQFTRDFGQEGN

SsoVps4 [1] = target: SsoVps4 (Saccharolobus solfataricus, UniProt Q97ZJ7, E206Q); settings: 2 mM MgCl2, pH 7.4, 4 °C, Walker B mutant
SsoVps4 [2] = target: T2, SsoVps4 (Saccharolobus solfataricus, UniProt Q97ZJ7); settings: 2 mM MgCl2, pH 7.4, 4 °C; 1 mM ADP
T2 sequence (Q97ZJ7 1-372): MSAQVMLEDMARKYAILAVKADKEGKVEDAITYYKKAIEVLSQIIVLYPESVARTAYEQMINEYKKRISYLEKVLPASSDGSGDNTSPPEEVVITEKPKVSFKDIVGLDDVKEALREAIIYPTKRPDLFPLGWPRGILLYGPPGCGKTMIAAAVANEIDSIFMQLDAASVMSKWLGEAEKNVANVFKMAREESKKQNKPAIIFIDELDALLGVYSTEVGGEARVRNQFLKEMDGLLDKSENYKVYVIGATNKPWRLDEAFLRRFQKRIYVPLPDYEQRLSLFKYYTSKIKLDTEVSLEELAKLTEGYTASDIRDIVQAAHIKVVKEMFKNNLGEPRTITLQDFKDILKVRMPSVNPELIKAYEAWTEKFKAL

| SMILES | size exclusion chromatography (nucleotide-bound oligomer) (Vps4p) | size exclusion chromatography (nucleotide-induced shift of oligomer) (SsoVps4 [1]; 1 mM ATP) | size exclusion chromatography (nucleotide-induced shift of oligomer) (SsoVps4 [2]) | size exclusion chromatography (nucleotide-induced shift of oligomer) (SsoVps4 [1]; 1 mM ADP) |
| --- | --- | --- | --- | --- |
| Nc1ncnc2c1ncn2[C@@H]1O[C@H](COP(=O)(O)OP(=O)(O)OP(=O)(O)O)[C@@H](O)[C@H]1O [ATP] | ATP-bound Vps4p(E233Q) migrated more rapidly than the wild type protein | both wild type and E206Q SsoVps4 eluted as lower molecular weight complexes |  |  |
| Nc1ncnc2c1ncn2[C@@H]1O[C@H](COP(=O)(O)OP(=O)(O)O)[C@@H](O)[C@H]1O [ADP] |  |  | both proteins migrated slightly more rapidly when bound to ADP than ATP | both wild type and E206Q SsoVps4 eluted as lower molecular weight complexes |

— publication PMC3919030 (Journal of molecular biology, 2013)
